Two compounds from patent US7056917B2, “Drug efflux pump inhibitor” (Daiichi Pharmaceutical Co., Ltd., priority 2001, dated 2006) can be followed below.

The test system of the assay is Pseudomonas aeruginosa PAM 1723 (a strain highly expressing MexAB-OprM drug efflux pump). Briefly: Combined use of drug efflux pump inhibitor and disinfectant, broth dilution method. The format is cell-based. As to conditions: for enhancement of activity of the disinfectant on PAM 1723: combined use with 10 μg/ml of the compound of Example 26. As for the experimental part: Effect of Combined Use of Drug Efflux Pump Inhibitor and Disinfectant
Effects of a combined use of a drug efflux pump inhibitor and alkyldiaminoethylglycine hydrochloride (AEG, trade name: Tego 51) or chlorhexidine gluconate (CHG, trade name: Hibiten) on Pseudomonas aeruginosa PAM 1723 (a strain highly expressing MexAB-OprM drug efflux pump) was determined by the broth dilution method. The compound of Example 26 was added at a final concentration of 10 μg/ml to Mueller-Hinton broth (MHB) containing a disinfectant at a concentration after 2-fold serial dilution. The amount of the test bacteria inoculated was 1×10^6 CFU/ml, and after standing cultivation at 37° C. for 18 hours, the culture was observed by visual inspection. The minimum concentration that gave no turbidity as in the control of MHB was determined as MIC.

[1] abbreviates: combined with compound of Example 26 at 10 μg/ml, PAM 1723, 37° C. 18 hours.
[2] abbreviates: compound of Example 26 at 10 μg/ml, PAM 1723.
[3] abbreviates: disinfectant alone, PAM 1723, 37° C. 18 hours.

As to `N=C(NCCCCCCNC(=N)NC(=N)Nc1ccc(Cl)cc1)NC(=N)Nc1ccc(Cl)cc1.O=C(O)[C@H](O)[C@@H](O)[C@H](O)[C@H](O)CO.O=C(O)[C@H](O)[C@@H](O)[C@H](O)[C@H](O)CO` [CHG, chlorhexidine gluconate], the “enhancement of activity of the disinfectant on PAM 1723” value was “four times”. For the same compound, under setting [1], the “MIC CHG Combined use” value came out at 4 µg/mL. The “CHG Ratio of MIC values for single use of the disinfectant and combined use with the compound of Example 26” value under setting [2] was 4. Further, under setting [3], the “MIC CHG Single use” value amounted to 16 µg/mL.

“alkyldiaminoethylglycine hydrochloride [AEG]”: the “enhancement of activity of the disinfectant on PAM 1723” value is listed as “two times”. The “MIC AEG Combined use” value under setting [1] was determined as 32 µg/mL. Under setting [2], the “AEG Ratio of MIC values for single use of the disinfectant and combined use with the compound of Example 26” value was found to be 2. For the same compound, under setting [3], the “MIC AEG Single use” value was 64 µg/mL.
